In patent publication US20120077683A1, “KIT AND METHOD FOR PREDICTING CYTARABINE SENSITIVY OF PATIENT HAVING ACUTE MYELOID LEUKEMIA” (SAMSUNG ELECTRONICS CO., LTD., priority 2010, published 2012):

Key:
[1] = system: patients having acute myeloid leukemia; experiment: Cytarabine therapy of patients having acute myeloid leukemia, complete remission determined from number of leukocytes; type: in vivo, human; details: of 139 patients with acute myeloid leukemia, cytarabine administered according to NCCN guidelines
Procedure: Cytarabine sensitivity of 139 patients who had acute myeloid leukemia and were treated in Samsung Medical Center was identified. That is, cytarabine was administered to the patients according to NCCN guidelines, and the number of leukocytes was subsequently measured in each patient to determine complete remission to determine whether the cytarabine therapy was effective for the patient. The patients were then classified into one group of 121 patients having cytarabine sensitivity (responders) and the other group of 18 patients not having cytarabine sensitivity (nonresponders). In addition, blood of the patients was obtained to extract DNA by using QIAamp DNA Mini and blood Mini kits in order to determine SNPs associated with cytarabine sensitivity of the patients.

[2] = system: patients having acute myeloid leukemia; details: stated as known; cited from earlier work

## Nc1ccn([C@@H]2O[C@H](CO)[C@@H](O)[C@@H]2O)c(=O)n1 [cytarabine, cytosine arabinoside]
[1]
  patients having cytarabine sensitivity (responders): 121 patients
  patients not having cytarabine sensitivity (nonresponders): 18 patients
[2]
  patients having acute myeloid leukemia on whom administration of cytarabine is not effective: about 20%
